Reference: patent US20100129418A1, “METHOD OF INDUCING NEGATIVE CHEMOTAXIS USING AN ELLAGITANNIN OR GALLOTANNIN” (priority 2008, published 2010)

Test system: neutrophils
Experiment: Chemorepulsion/chemoattraction transwell migration assay (Neuroprobe ChemoTx plates)
Assay type: cell-based
Settings: Homo sapiens, Neutrophil, 1 h, 1.1 mg/ml ellagic acid, CR mode, 1 hour at 37° C., read-out: fold induction of chemorepulsion as compared to media
Description: The chemorepulsive activity of ellagic acid was determined as follows: • 1. Prior to beginning the assay, the following were prepared: • a. 0.5% Fetal Calf Serum (FCS) in Iscove's Modified Dulbecco's Medium (IMDM) (Assay Medium) (Both from ATCC). • b. Migratory cells at a concentration of 2×10^7 cells/ml in Assay Medium. • c. The indicated dilutions of ellagic acid Assay Medium. • 2. The assay plates were Neuroprobe ChemoTx plates, part number 206-3 (3 um pore size) for neutrophils. • 3. The plates were removed from packaging, leaving the membrane behind. • 4. 31 μl of the following solutions were pipetted into each well: • a. For media controls and for chemorepulsion samples, Assay Medium was used. • b. For chemoattraction samples, appropriate dilution of ligand was used. • 5. The membrane was carefully placed onto the plate, starting at one side and then slowly lowering the other edge onto the plate. • 6. 29 μl of the following were pipetted onto the top of each circle: • a. For media controls and chemoattraction samples, Assay Medium was used. • b. For chemorepulsion samples, the appropriate dilution of ligand was used. • 7. […] The assay plates were processed by Guava Easy Cyte Plus (using via cell count for read out). • 1. […] The Guava Easy Cyte Plus was used to read the plate and quantify the number of migrated cells. […]

## O=c1oc2c(O)c(O)cc3c(=O)oc4c(O)c(O)cc1c4c23 [ellagic acid, 2,3,7,8-tetrahydroxy-chromeno[5,4,3-cde]chromene-5,10-dione]
  fold induction at 1100 µg/mL: ~55
